“And” between values parts separate entries of the source, which are not always exact repeats. Equal entries are not always repeated. Where two headings read alike, the source gives them in different places. Values belong to the compound of their own block, whether it stands above or below them.
What was measured:
[1] = Enrichment/extraction of i-BuOH from aqueous solution by contact with 2-heptanone; assay type: physicochemical; conditions: 25° C.
[2] = Enrichment/extraction of i-BuOH from aqueous solution by contact with decanol; assay type: physicochemical; conditions: 25° C.
[3] = Enrichment by glucose addition followed by contact with gasoline; assay type: physicochemical; conditions: for Increase of alcohol concentration in the gasoline phase in the presence of glucose: compared with example 3 (no glucose); for Alcohol Wt % in heavy phase / Alcohol Wt % in light phase / Alcohol Da: gasoline, 20% (w/w) glucose, 24° C.; for Alcohol Da: light/heavy phase
Procedure: (§1) These solutions were then mixed with gasoline. The gasoline used was commercial grade with a 95 octane rating. At equilibrium, phase separation was observed forming an upper alcohol rich phase (light phase) and a lower alcohol lean phase (heavy phase). Both phases were analyzed for alcohol and water content. The distribution coefficient of the alcohol was calculated for each experiment by dividing the alcohol concentration in the light phase by the concentration in the heavy phase. The distribution coefficient for water was calculated accordingly. The Enrichment factor was calculated by dividing the distribution coefficient of alcohol by the distribution coefficient of water. All experiments were carried out at 24° C.

[4] = Enrichment by calcium chloride addition followed by contact with gasoline; assay type: physicochemical; conditions: for Increase of alcohol concentration in the gasoline phase in the presence of calcium chloride: compared with example 3 (no calcium chloride); for Alcohol Wt % in heavy phase / Alcohol Wt % in light phase / Alcohol Da: gasoline, 15% (w/w) calcium chloride, 24° C.; for Alcohol Da: light/heavy phase
Procedure: as §1, with “observed,” for “observed”, “contents.” for “content.”, “phase.” for “phase. The distribution coefficient for water was calculated accordingly. The Enrichment factor was calculated by dividing the distribution coefficient of alcohol by the distribution coefficient of water.”

[5] = Enrichment of C3-C6 alcohols from aqueous solutions by contact with octane; assay type: physicochemical; conditions: 24° C.
Procedure: Several aqueous solutions were prepared for each alcohol, differing in their alcohol concentrations, all of which were sub-saturated. […] The phase ratio between the aqueous solution and the solvent differed from one case to the other. Mixing was continued until equilibrium was reached. At equilibrium, phase separation could be observed forming an upper, alcohol-rich phase (light phase) and a lower, alcohol-lean phase (heavy phase). Both phases were analyzed for alcohol and water content. […] The water content of the organic phases was determined by the Karl-Fischer method. These analytical methods were also used for the analyses in the other examples.
The distribution coefficient of the alcohol was calculated for each experiment by dividing the alcohol concentration in the light phase by the alcohol concentration in the heavy phase. Similarly, the distribution coefficient for water was calculated by dividing the water concentration in the light phase by the water concentration in the heavy phase. The enrichment factor was calculated by dividing the distribution coefficient of alcohol by the distribution coefficient of water. In addition, the alcohol to water ratio (w/w) was calculated for the light phase.

[6] = for Number of phases: aqueous propanol, 25° C.
Procedure: The number of liquid phases present in each mixture at 25° C. was noted.

[7] = Enrichment of C3-C6 alcohols from aqueous solutions by contact with gasoline; assay type: physicochemical; conditions: 24° C.
Procedure: The gasoline used was commercial grade with a 95 octane rating. […] Both phases were analyzed for alcohol and water content. The distribution coefficient of the alcohol was calculated for each experiment by dividing the alcohol concentration in the light phase by the concentration in the heavy phase. Similarly, the distribution coefficient for water was calculated by dividing the water concentration in the light phase by the water concentration in the heavy phase. The enrichment factor was calculated by dividing the distribution coefficient of alcohol by the distribution coefficient of water. All experiments were carried out at 24° C.

[8] = Phase separation of 4% butanol or isobutanol solutions by addition of calcium chloride; assay type: physicochemical; conditions: 4% alcohol, calcium chloride 15% (w/w), 25° C.
Procedure: (§2) This example illustrates the induction of phase separation of butanol or isobutanol in water solutions by calcium chloride addition. […] The light and heavy phases were analyzed for alcohol content for each experiment. All experiments were carried out at 25° C. The distribution coefficient was calculated by division of the concentration of butanol in the light phase by the concentration of butanol in the heavy phase.

[9] = Enrichment/extraction of i-BuOH from aqueous solution by contact with tri-butyl phosphate; assay type: physicochemical; conditions: 25° C.
[10] = Mutual solubility of isobutanol and water as a function of temperature; assay type: physicochemical; conditions: isobutanol-water
Procedure: First, 20 g of water were mixed with 20 g isobutanol in closed vials at room temperature. The vials were then mixed at 5, 10, 20, 40, 60 or 80° C. The vials were held at the stated temperature while being mixed until equilibrium was established. Then the samples were separated into light and heavy phases while being held at temperature. The samples from the light and the heavy phases were analyzed by HPLC and by Karl-Fischer titration.

[11] = Contact of sub-saturated aqueous isobutanol with 3 Angstrom molecular sieve particles; assay type: physicochemical; conditions: 2 g sub-saturated aqueous isobutanol with 1.5 g of 3 Angstrom molecular sieve particles
Procedure: This example illustrates the isobutanol enrichment from aqueous isobutanol solutions using molecular sieves to adsorb water. A sub-saturated solution of isobutanol in water was prepared. Two grams of this solution were thoroughly mixed with 1.5 g of 3 Angstrom molecular sieve particles in a vial. After mixing, the vial was left to settle.

[12] = Phase separation of 7% butanol or isobutanol solutions by addition of glucose; assay type: physicochemical; conditions: 7% alcohol, glucose 20% (w/w), 25° C.
Procedure: as §2, with “addition of glucose.” for “calcium chloride addition.”

[13] = Phase separation of aqueous t-butanol by addition of glucose; assay type: physicochemical
Procedure: This example illustrates the induction of phase separation of t-butanol (t-BuOH) in water solution by addition of glucose. An aqueous solution of t-butanol (50% v/v) was prepared at 25° C. and glucose was added to a final concentration of 20% (w/v). […] Both phases were analyzed for t-butanol concentration. The t-BuOH and glucose concentrations in the heavy phase were about 150 g/L and about 45% w/w, respectively. The light phase had about 520 g/L of t-BuOH.

[14] = aqueous i-BuOH heavy phase, equilibrium
[15] = 50% v/v aqueous t-butanol, glucose 20% (w/v), 25° C.

- 2-Heptanone Wt % in heavy phase [1, 14]: 0.34 Wt % and 0.29 Wt % and 0.40 Wt %
Compound: CCCCCC(C)=O [2-Heptanone]

Compound: CCCCCCCCCCO [Decanol, decanol]
- Decanol Wt % in heavy phase [2, 14]: 0.0043 Wt % and 0.0053 Wt % and 0.0020 Wt %

- Increase of alcohol concentration in the gasoline phase in the presence of glucose [3]: greater than 10 fold
- Alcohol Wt % in heavy phase [3]: 0.16 Wt %
- Alcohol Wt % in light phase [3]: 3.4 Wt %
- Alcohol Da [3]: 21
- Increase of alcohol concentration in the gasoline phase in the presence of calcium chloride [4]: greater than 10 fold
- Alcohol Wt % in heavy phase [4]: 0.14 Wt %
- Alcohol Wt % in light phase [4]: 2.2 Wt %
- Alcohol Da [4]: 15
Compound: CCCCCO [PenOH, n-Pentanol]

Compound: CCCO [PrOH, propanol]
- Alcohol Wt % in heavy phase ([5]; equilibrium): 1.9 Wt % and 5.7 Wt % and 0.66 Wt %
- Alcohol Wt % in light phase ([5]; equilibrium): 0.07 Wt % and 0.24 Wt % and 0.03 Wt %
- Enrichment factor ([5]; Da/Dw): >80 and >100
- Miscibility with water ([6]; any proportion, no additive): fully miscible with water
- Number of phases ([6]; CaCl2 9.5%): 1
- Number of phases ([6]; CaCl2 15.1%): 2
- Number of phases ([6]; Glucose 40%): 1
- Number of phases ([6]; Glucose 60%): 2
- Number of phases ([6]; Sucrose 40%): 2
- Number of phases ([6]; no hydrophilic solute): 1
- Alcohol Wt % in heavy phase ([7]; equilibrium): 5.1 Wt % and 0.61 Wt % and 1.9 Wt %
- Alcohol Wt % in light phase ([7]; equilibrium): 0.50 Wt % and 0.08 Wt % and 0.16 Wt %
- Enrichment factor ([7]; Da/Dw): >200 and >240 and >160

- Alcohol in heavy phase (% w/w) [8]: 2.9 % w/w
- Alcohol in light phase (% w/w) [8]: 91 % w/w
- Concentration in the light phase compared to the starting solution [8]: approximately 23 fold
- Distribution coefficient ([8]; light/heavy phase): 31
- i-BuOH Wt % in heavy phase ([9]; equilibrium): 0.22 Wt % and 1.2 Wt % and 1.9 Wt %
- i-BuOH Wt % in light phase ([9]; equilibrium): 1.2 Wt % and 5.6 Wt % and 9.8 Wt %
- Enrichment factor ([9]; Da/Dw): 76 and 74 and 82
- Distribution coefficient i-BuOH Da ([9]; light/heavy phase): 5.4 and 4.9 and 5.2
- Isobutanol Wt % in light phase ([10]; 5° C.): 83.9 Wt %
- Isobutanol Wt % in light phase ([10]; 10° C.): 84.0 Wt %
- Isobutanol Wt % in light phase ([10]; 20° C.): 83.4 Wt %
- Isobutanol Wt % in light phase ([10]; 40° C.): 81.5 Wt %
- Isobutanol Wt % in light phase ([10]; 60° C.): 79.1 Wt %
- Isobutanol Wt % in light phase ([10]; 80° C.): 76.5 Wt %
- Phases observed after settling [11]: two liquid phases
- Increase of alcohol concentration in the gasoline phase in the presence of glucose [3]: 2 fold
- Alcohol Wt % in heavy phase [3]: 1.4 Wt %
- Alcohol Wt % in light phase [3]: 1.9 Wt %
- Alcohol Da [3]: 1.36
- i-BuOH Wt % in heavy phase ([1]; 2-Heptanone, equilibrium): 1.7 Wt % and 2.0 Wt % and 0.44 Wt %
- i-BuOH Wt % in light phase ([1]; 2-Heptanone, equilibrium): 5.4 Wt % and 8.4 Wt % and 1.15 Wt %
- Enrichment factor ([1]; Da/Dw, 2-Heptanone): 125 and 116 and 155
- Distribution coefficient i-BuOH Da ([1]; light/heavy phase, 2-Heptanone): 3.3 and 4.1 and 2.6
- Enrichment factor ([2]; Da/Dw, decanol): 116 and 119 and 99
- i-BuOH Wt % in heavy phase ([2]; decanol, equilibrium): 1.4 Wt % and 2.2 Wt % and 0.30 Wt %
- Distribution coefficient i-BuOH Da ([2]; light/heavy phase, decanol): 5.2 and 5.5 and 3.8
- Increase of alcohol concentration in the gasoline phase in the presence of calcium chloride [4]: 4.5 fold
- Alcohol Wt % in heavy phase [4]: 0.94 Wt %
- Alcohol Wt % in light phase [4]: 3.3 Wt %
- Alcohol Da [4]: 3.5
- Alcohol in heavy phase (% w/w) [12]: 5.1 % w/w
- Alcohol in light phase (% w/w) [12]: 87 % w/w
- Concentration in the light phase compared to the starting solution [12]: approximately 12 fold
- Distribution coefficient ([12]; light/heavy phase): 17
Compound: CC(C)CO [i-BuOH, 2-methyl-1-propanol]

Compound: CC(C)(C)O [t-BuOH, 2-methyl-2-propanol]
- Enrichment in the light phase compared to the heavy phase (factor) [13, 15]: about 3.5
- t-BuOH concentration in the heavy phase [13, 15]: about 150 g/L
- t-BuOH concentration in the light phase [13, 15]: about 520 g/L
- Miscibility with water ([13]; any proportion, no additive): fully miscible with water

Source: patent US20140360376A1, “RECOVERY OF HIGHER ALCOHOLS FROM DILUTE AQUEOUS SOLUTIONS” (GEVO, INC., priority 2007, published 2014)
